Consider 8 compounds from ChEMBL document CHEMBL1158512, “The antimicrobial activity of compounds from the leaf and stem of Vitis amurensis against two oral pathogens” (2010).

What all share (assay type): functional
Experiment [1] concerns Streptococcus mutans. Put plainly: Antimicrobial activity against Streptococcus mutans KCTC 3065 at 100 ug/ml after 20 hrs by disk diffusion method. As to conditions: for zone of inhibition at 100 µg/mL: KCTC 3065, 20 h, read-out: IZ.
In experiment [2] the test system is Streptococcus sanguinis. In words: Antimicrobial activity against Streptococcus sanguinis NCTC 9811 at 400 ug/ml after 20 hrs by disk diffusion method. As to conditions: for zone of inhibition at 400 µg/mL: NCTC 9811, 20 h, read-out: IZ. In general terms: In agar diffusion tests the substance spreads into inoculated agar from a disc or well.
Experiment [3] relates to Streptococcus mutans. In words: Antimicrobial activity against Streptococcus mutans KCTC 3065 at 50 ug/ml after 20 hrs by disk diffusion method. The settings on record: for zone of inhibition at 50 µg/mL: KCTC 3065, 20 h, read-out: IZ.
Experiment [4] deals with Streptococcus mutans. In words: Antimicrobial activity against Streptococcus mutans KCTC 3065 at 600 ug/ml after 20 hrs by disk diffusion method. The settings on record: for zone of inhibition at 600 µg/mL: KCTC 3065, 20 h, read-out: IZ.
The subject of experiment [5] is Streptococcus mutans. In words: Antimicrobial activity against Streptococcus mutans KCTC 3065 at 200 ug/ml after 20 hrs by disk diffusion method. The settings on record: for zone of inhibition at 200 µg/mL: KCTC 3065, 20 h, read-out: IZ.
The test system of experiment [6] is Streptococcus sanguinis. In words: Antimicrobial activity against Streptococcus sanguinis NCTC 9811 after 20 hrs by plate dilution method. The settings on record: NCTC 9811, 20 h.
For experiment [7], the system named is Streptococcus sanguinis. Put plainly: Antimicrobial activity against Streptococcus sanguinis NCTC 9811 assessed as total bacterial adherence inhibition.
Experiment [8] concerns Streptococcus sanguinis. Put plainly: Antimicrobial activity against Streptococcus sanguinis NCTC 9811 at 200 ug/ml after 20 hrs by disk diffusion method. As to conditions: for zone of inhibition at 200 µg/mL: NCTC 9811, 20 h, read-out: IZ.
Experiment [9] relates to Streptococcus sanguinis. In words: Antimicrobial activity against Streptococcus sanguinis NCTC 9811 at 600 ug/ml after 20 hrs by disk diffusion method. As to conditions: for zone of inhibition at 600 µg/mL: NCTC 9811, 20 h, read-out: IZ.
In experiment [10] the test system is Streptococcus sanguinis. In words: Antimicrobial activity against Streptococcus sanguinis NCTC 9811 at 50 ug/ml after 20 hrs by disk diffusion method. As to conditions: for zone of inhibition at 50 µg/mL: NCTC 9811, 20 h, read-out: IZ.
For experiment [11], the system named is Streptococcus mutans. Put plainly: Antimicrobial activity against Streptococcus mutans KCTC 3065 at 400 ug/ml after 20 hrs by disk diffusion method. The settings on record: for zone of inhibition at 400 µg/mL: KCTC 3065, 20 h, read-out: IZ.
The subject of experiment [12] is Streptococcus sanguinis. Put plainly: Antimicrobial activity against Streptococcus sanguinis NCTC 9811 at 100 ug/ml after 20 hrs by disk diffusion method. The settings on record: for zone of inhibition at 100 µg/mL: NCTC 9811, 20 h, read-out: IZ.
Experiment [13] concerns Streptococcus mutans. Put plainly: Antimicrobial activity against Streptococcus mutans KCTC 3065 after 20 hrs by plate dilution method. As to conditions: KCTC 3065, 20 h.
Experiment [14] has as its system Streptococcus mutans. In words: Antimicrobial activity against Streptococcus mutans KCTC 3065 assessed as total bacterial adherence inhibition.

SMILES strings stand for the structures. In brackets after ≈: the same amount, converted by molar mass. Activity calls are given as the source filed them. The rule behind the calls is not given here.

Usually MBC stands for the lowest tested concentration that kills the bacteria rather than only halting them. A lower MBC goes with more potent killing. What is called MIC is the least concentration at which growth counts as inhibited. Lower therefore signals greater potency. For `Oc1ccc(/C=C/c2cc(O)cc3c2[C@H](c2cc(O)cc(O)c2)[C@@H](c2ccc(O)cc2)O3)cc1`, the zone of inhibition at 100 µg/mL in experiment [1] was less than 15 mm; in [12], 20 mm. Moreover, the zone of inhibition at 400 µg/mL was 20 mm in [2] and greater than 20 mm in experiment [11]. In addition, the zone of inhibition at 50 µg/mL in experiment [3] and in experiment [10] was less than 15 mm each time. For the same compound, the zone of inhibition at 600 µg/mL in [4] was greater than 20 mm; in experiment [9], 20 mm. In addition, the zone of inhibition at 200 µg/mL in [5] and in [8] was 20 mm each time. The MBC in experiment [6] and in experiment [13] was 50 µg/mL (≈ 110 µM) throughout. Further, the figures for the MIC in experiment [6] and in experiment [13] were 12.5 µg/mL (≈ 27.5 µM) and 25 µg/mL (≈ 55 µM), respectively. For the same compound, the Activity in [7] stood at 50 µg/mL. In experiment [14], the “Concentration for total adherence inhibition” value was 25 µg/mL.

For `Oc1ccc(C2[C@H]3c4cc(O)cc(O)c4[C@@H](c4ccc(O)cc4)[C@@H]2c2cc(O)cc(O)c23)cc1` (stereo not given in full), in [1], the zone of inhibition at 100 µg/mL was less than 11 mm. Further, the zone of inhibition at 400 µg/mL in experiment [2] and in experiment [11] was less than 15 mm in each case. The “inhibition zone (IZ)” value in experiment [3], in experiment [10] and in [12] was “inactive” throughout. The zone of inhibition at 600 µg/mL in [4] is 20 mm; in [9] it was less than 15 mm. Further, the figures for the zone of inhibition at 200 µg/mL in experiment [5] and in experiment [8] were less than 15 mm and less than 11 mm, respectively. Moreover, the values for the MBC in experiment [6] and in experiment [13] were greater than 400 µg/mL and 200 µg/mL (≈ 440 µM), respectively. Also, the results for the MIC in [6] and in experiment [13] were greater than 400 µg/mL and 100 µg/mL (≈ 220 µM), respectively. Further, the Activity in experiment [7] is greater than 200 µg/mL. The “Concentration for total adherence inhibition” value in [14] is 100 µg/mL.

In the case of `OC[C@H]1OC(Oc2cc(O)cc(/C=C/c3ccc(O)cc3)c2)[C@H](O)[C@@H](O)[C@@H]1O` (stereo not given in full), the “inhibition zone (IZ)” value in experiment [1], in experiment [2], in experiment [3], in experiment [4], in experiment [5] and in experiment [8] was “inactive” throughout. Besides, the “inhibition zone (IZ)” value in [9], in experiment [10], in [11] and in [12] was “inactive” each time.

As to `OC[C@H]1O[C@@H](Oc2cc(O)cc(/C=C/c3ccc(O)c(O)c3)c2)[C@H](O)[C@@H](O)[C@@H]1O`, the “inhibition zone (IZ)” value in experiment [1], in experiment [2], in experiment [3], in [4], in experiment [5] and in experiment [8] was “inactive” each time. Further, the “inhibition zone (IZ)” value in experiment [9], in experiment [10], in experiment [11] and in [12] was “inactive” in each case.

As for `Oc1ccc([C@H]2c3c(O)cc(O)cc3[C@H]3c4c(cc(O)c5c4[C@H]2[C@@H](c2ccc(O)cc2)[C@@H]5c2cc(O)cc(O)c2)O[C@@H]3c2ccc(O)cc2)cc1` [AMURESIN G], the zone of inhibition at 100 µg/mL in experiment [1] was less than 11 mm; in [12], less than 15 mm. For the same compound, the zone of inhibition at 400 µg/mL in [2] and in [11] was less than 15 mm in each case. Also, the “inhibition zone (IZ)” value in [3] is “inactive”. Also, the zone of inhibition at 600 µg/mL in [4] and in [9] was less than 15 mm each time. Further, the results for the zone of inhibition at 200 µg/mL in [5] and in experiment [8] were less than 11 mm and less than 15 mm, respectively. Besides, the values for the MBC in experiment [6] and in experiment [13] were 100 µg/mL (≈ 147 µM) and 50 µg/mL (≈ 73.5 µM), respectively. For the same compound, the MIC in [6] is 12.5 µg/mL (≈ 18.4 µM); in experiment [13], 50 µg/mL (≈ 73.5 µM). In addition, in experiment [7], the Activity was 50 µg/mL. The zone of inhibition at 50 µg/mL in experiment [10] is less than 11 mm. In addition, the “Concentration for total adherence inhibition” value in experiment [14] stood at 25 µg/mL.

For `CC[C@H]1OC(=O)[C@H](C)[C@@H](O[C@H]2C[C@@](C)(OC)[C@@H](O)[C@H](C)O2)[C@H](C)[C@@H](O[C@@H]2O[C@H](C)C[C@H](N(C)C)[C@H]2O)[C@](C)(O)C[C@@H](C)C(=O)[C@H](C)[C@@H](O)[C@]1(C)O` [ERYTHROMYCIN], in [6], the MBC amounted to 50 µg/mL (≈ 68.1 µM) and the minimum inhibitory concentration (MIC) was determined as 12.5 µg/mL (≈ 17 µM). For the same compound, the Activity in [7] was 25 µg/mL. Further, in experiment [13], the MBC is less than 1.5 µg/mL. The “Concentration for total adherence inhibition” value in experiment [14] came out at 0.78 µg/mL.

Turning to `Oc1cc(O)cc(/C=C/c2ccc(O)c(O)c2)c1` [PICEATANNOL], the zone of inhibition at 100 µg/mL in [1] and in experiment [12] was less than 15 mm each time. Moreover, the zone of inhibition at 400 µg/mL in [2] and in [11] was greater than 20 mm each time. Moreover, the zone of inhibition at 50 µg/mL in experiment [3] and in [10] was less than 15 mm in each case. For the same compound, the zone of inhibition at 600 µg/mL in [4] and in experiment [9] was greater than 20 mm each time. For the same compound, the zone of inhibition at 200 µg/mL in experiment [5] and in experiment [8] was 20 mm throughout. The MBC in experiment [6] and in experiment [13] was 100 µg/mL (≈ 409 µM) each time. The MIC in [6] and in experiment [13] was 50 µg/mL (≈ 205 µM) each time. Besides, the Activity in experiment [7] came out at 50 µg/mL. Besides, in experiment [14], the “Concentration for total adherence inhibition” value is 50 µg/mL.

Turning to `Oc1ccc(/C=C/c2cc(O)cc(O)c2)cc1` [RESVERATROL], the figures for the zone of inhibition at 100 µg/mL in experiment [1] and in [12] were less than 15 mm and less than 11 mm, respectively. Also, the zone of inhibition at 400 µg/mL was less than 15 mm in experiment [2] and 20 mm in [11]. The zone of inhibition at 50 µg/mL in [3] and in experiment [10] was less than 11 mm each time. For the same compound, the zone of inhibition at 600 µg/mL in experiment [4] is greater than 20 mm; in experiment [9], 20 mm. For the same compound, the zone of inhibition at 200 µg/mL is 20 mm in experiment [5] and less than 15 mm in experiment [8]. Also, the MBC in experiment [6] was determined as 100 µg/mL (≈ 438 µM); in experiment [13] it was 50 µg/mL (≈ 219 µM). The MIC in experiment [6] came to 25 µg/mL (≈ 110 µM); in experiment [13] it was 50 µg/mL (≈ 219 µM). Moreover, in [7], the Activity was 100 µg/mL. In experiment [14], the “Concentration for total adherence inhibition” value was 25 µg/mL.
